Data published in PMC3222737 (Biochemistry, 2011).
Where “and” joins values, the source holds several entries; their conditions need not be identical. Equal entries are not always repeated. Where two headings read alike, the source gives them in different places.

Legend:
MTAP [1] = molecular target: T1, MTAP (Homo sapiens, UniProt Q13126); assay: Isothermal titration calorimetry of ligand binding to human MTAP; conditions: for ΔG: calculated from Ki; for −TΔS: from ΔG=ΔH−TΔS
T1 sequence (Q13126 1-283): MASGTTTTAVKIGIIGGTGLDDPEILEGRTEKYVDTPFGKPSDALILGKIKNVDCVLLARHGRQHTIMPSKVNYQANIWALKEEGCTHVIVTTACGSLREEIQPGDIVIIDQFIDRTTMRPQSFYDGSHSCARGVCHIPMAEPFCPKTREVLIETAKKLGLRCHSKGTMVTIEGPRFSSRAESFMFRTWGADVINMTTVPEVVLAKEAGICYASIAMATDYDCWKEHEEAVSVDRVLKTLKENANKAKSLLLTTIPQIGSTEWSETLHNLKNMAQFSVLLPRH

MTAP [2] = molecular target: T1, MTAP; conditions: cited from earlier work; for Ki: human MTAP
MTAP [3] = molecular target: T1, MTAP; assay: Analytical ultracentrifugation sedimentation velocity of MTAP complexes; conditions: for S(20,w) (normalized): MTAP 134 μM + inhibitor 400 μM, normalized for mass of bound ligands; for S(20,w) relative change: versus apo MTAP
Cal27 = Cal27 cells; cited from earlier work
FaDu = FaDu cells; cited from earlier work
[4] = tested on: human lung cancer cell lines; conditions: mouse xenografts; cited from earlier work
[5] = in vivo; cited from earlier work
FaDu tumors = conditions: mouse model; cited from earlier work
[6] = second generation inhibitors, identical sites
[7] = second generation inhibitors, single set of identical sites
[8] = first generation inhibitors, major binding sites
[9] = first generation inhibitors, third site
[10] = first generation inhibitors, major binding sites (first two sites)

SMILES | ΔH (MTAP [1]; [6]) | ΔG (MTAP [1]; [6]) | −TΔS (MTAP [1]; [6]) | n (number of sites) (MTAP [1]; [7]) | Kd (MTAP [2]; [7]) | S(20,w) (normalized) (MTAP [3]) | S(20,w) relative change (MTAP [3]) | n (number of sites) (MTAP [1]; [8]) | ΔH (MTAP [1]; [8]) | ΔG (MTAP [1]; [8]) | −TΔS (MTAP [1]; [8]) | n (number of sites) (MTAP [1]; [9]) | ΔH (MTAP [1]; [9]) | ΔG (MTAP [1]; [9]) | −TΔS (MTAP [1]; [9]) | Kd (MTAP [2]; [10]) | further results
Nc1ncnc2c(CN3CC(CSc4ccc(Cl)cc4)[C@H](O)C3)c[nH]c12 (some centres unmarked) [p-Cl-PhT-DADMe-ImmA] | 2.6 ± 0.1 kcal/mol | -15.0 kcal/mol and -15.0 ± 0.3 kcal/mol | -17.6 kcal/mol and -17.6 ± 0.3 kcal/mol | 3 | 0.01 ± 0.005 nM | 6.012 ± 0.067 | 2.63% and 2.63 ± 0.12% |  |  |  |  |  |  |  |  |  | 
CCCSC[C@H]1N[C@@H](c2c[nH]c3c(N)ncnc23)[C@H](O)[C@@H]1O [nPrT-ImmA] |  |  |  |  |  |  |  | 2.13 ± 0.04 | 0.2 kcal/mol and 0.24 ± 0.03 kcal/mol | -13.2 kcal/mol and -13.2 ± 0.03 kcal/mol | -13.4 kcal/mol and -13.4 ± 0.1 kcal/mol | 0.9 ± 0.1 | 1.1 ± 0.2 kcal/mol | -8.2 ± 0.4 kcal/mol | -9.3 ± 0.4 kcal/mol | 0.214 ± 0.01 nM | 
Nc1ncnc2[nH]cnc12 [Adenine, reference compound] |  |  |  |  |  |  |  |  |  |  |  |  |  |  |  |  | Kd (MTAP [1]; Kd, adenine, 1st site, three sequential binding sites model, derived from ITC data fitting): 3000 ± 1000 nM; ΔH (MTAP [1]; adenine, 1st site): -0.003 ± 0.2 kcal/mol; n (number of sites) (MTAP [1]; adenine, 1st site, sequential model): 1; ΔG (MTAP [1]; adenine, 1st site): -7.6 ± 0.2 kcal/mol; −TΔS (MTAP [1]; adenine, 1st site): -7.6 ± 0.3 kcal/mol; ΔH (MTAP [1]; adenine, 2nd site): 2.4 ± 0.2 kcal/mol; n (number of sites) (MTAP [1]; adenine, 2nd site, sequential model): 1; ΔG (MTAP [1]; adenine, 2nd site): -7.7 ± 0.2 kcal/mol; −TΔS (MTAP [1]; adenine, 2nd site): -10.1 ± 0.3 kcal/mol; ΔH (MTAP [1]; adenine, 3rd site): -2.6 ± 0.8 kcal/mol; n (number of sites) (MTAP [1]; adenine, 3rd site, sequential model): 1; ΔG (MTAP [1]; adenine, 3rd site): -5.6 ± 0.5 kcal/mol; −TΔS (MTAP [1]; adenine, 3rd site): -3.0 ± 0.9 kcal/mol; Entropy (−TΔS) share of the binding energy (MTAP [1]; adenine, third site): 54%
CSC[C@H]1CN(Cc2c[nH]c3c(N)ncnc23)C[C@@H]1O [MT-DADMe-ImmA] | 1.5 ± 0.1 kcal/mol | -13.7 kcal/mol and -13.7 ± 0.1 kcal/mol | -15.2 kcal/mol and -15.2 ± 0.1 kcal/mol | 3 | 0.09 ± 0.01 nM | 5.904 ± 0.016 | 0.79 ± 0.05% |  |  |  |  |  |  |  |  |  | apoptosis (Cal27): induces apoptosis; apoptosis (FaDu): induces apoptosis; tumor growth and metastases [4]: inhibits the tumor growth and metastases; Ki (MTAP [2]; read-out: Ki (dissociation constant by inhibition kinetics)): 0.09 nM; systemic toxicity [5]: low systemic toxicity; tumor growth (FaDu tumors): prevents the growth of FaDu tumors
CSCC1NC(c2c[nH]c3c(N)ncnc23)[C@@H](O)[C@H]1O (some centres unmarked) [MT-ImmA] |  |  |  |  |  |  |  | 2.42 ± 0.04 | 0.2 kcal/mol and 0.24 ± 0.04 kcal/mol | -12.3 kcal/mol and -12.3 ± 0.1 kcal/mol | -12.5 kcal/mol and -12.5 ± 0.1 kcal/mol | 0.58 ± 0.09 | 2.7 ± 0.4 kcal/mol | -8.4 ± 0.3 kcal/mol | -11.1 ± 0.5 kcal/mol | 1 ± 0.1 nM | Ki (MTAP [2]): 1 nM
